In ChEMBL document CHEMBL1142024, “Glucokinase-activating ureas” (Bioorg Med Chem Lett, 2005) one finds EC50 and Activity data, which are given here for 32 compounds.

Assay [1] deals with T1, Hexokinase-4 (Rattus norvegicus, UniProt P17712).
T1 sequence (P17712 whole entry): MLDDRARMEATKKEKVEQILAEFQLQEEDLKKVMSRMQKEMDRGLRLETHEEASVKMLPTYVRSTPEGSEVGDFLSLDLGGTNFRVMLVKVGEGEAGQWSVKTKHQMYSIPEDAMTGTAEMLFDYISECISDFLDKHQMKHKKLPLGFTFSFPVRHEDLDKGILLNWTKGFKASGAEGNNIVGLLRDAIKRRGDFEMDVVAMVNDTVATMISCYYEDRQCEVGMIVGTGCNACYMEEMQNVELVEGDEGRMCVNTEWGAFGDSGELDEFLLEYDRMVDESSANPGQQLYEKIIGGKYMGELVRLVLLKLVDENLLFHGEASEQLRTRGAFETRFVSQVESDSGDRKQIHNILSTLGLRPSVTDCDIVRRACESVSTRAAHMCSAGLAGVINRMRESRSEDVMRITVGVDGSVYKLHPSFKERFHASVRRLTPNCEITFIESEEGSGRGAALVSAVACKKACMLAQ
Description: Effective concentration for glucokinase activation with 5 mM glucose. Type of assay: functional.

Assay [2] deals with T2, Hexokinase-4 (Rattus norvegicus) (UniProt P17712).
T2 sequence (whole entry): T1 sequence (P17712 whole entry)
Nature of the assay: Maximal activation of glucokinase; NA - No activation at 30 uM.

Assay [3] addresses T1, Hexokinase-4. Description: Effective concentration for glucokinase activity; NA - No activation at 30 uM. Format: functional.
Assay [4] concerns the target T1, Hexokinase-4. Nature of the assay: Effective concentration for glucokinase activation with 15 mM glucose. Type of assay: functional.
For assay [5], the target named is T2, Hexokinase-4 (Rattus norvegicus). Description: Maximal activation of glucokinase at 15 mM glucose.
Assay [6] concerns the target T1, Hexokinase-4. Nature of the assay: Effective concentration for glucokinase activation; NA - No activation at 30 uM. Format: functional.

The source made the active and inactive calls. No cut-off for these calls is given here.

For the compound `O=C(Nc1nccs1)N(CC1CCCC1)c1ccc(F)c(F)c1`, the response at Hexokinase-4 [1] was half-maximal at 16.3 µM (EC50).
On to `O=C(Nc1ncc(Cl)s1)N(CC1CCCC1)c1ccc(N2CCOCC2)cc1`, for which the outcome in assay [2] was inactive. For the same compound, the EC50 entry on Hexokinase-4 [3] was “Not Active”.
At Hexokinase-4 [1], `CS(=O)(=O)c1ccc(N(Cc2ccsc2)C(=O)Nc2ncc(Br)s2)cc1` had an EC50 of 6.5 µM.
Consider `CS(=O)(=O)c1ccc(C(CC2CCCC2)C(=O)Nc2nccs2)cc1` (stereo not given), for which the results for the EC50 at Hexokinase-4 [4] and on Hexokinase-4 [1] were 1 µM and 2.2 µM, respectively. The compound also registered an Activity in assay [5] of 1.6.
`CS(=O)(=O)c1ccc(N(Cc2ccsc2)C(=O)Nc2ncc(Cl)s2)cc1` came in with an EC50 at Hexokinase-4 [1] of 6.8 µM.
Regarding `CC(=O)Nc1cccc(N(CC2CCCC2)C(=O)Nc2ncc(Cl)s2)c1`, the EC50 on Hexokinase-4 [1] was determined as 0.3 µM.
Same read-out and setting: next, `COc1ccc(N(CC2CCCC2)C(=O)NC2=NC(=O)CS2)cn1`: 29.1 µM.
Consider `O=C(Nc1ccccn1)N(CC1CCCC1)c1ccc(F)c(F)c1`, for which, in assay [2], the outcome was inactive. Besides, on Hexokinase-4 [6], the EC50 result is recorded as “Not Active”.
In the case of `COc1ccc(N(CC2CCCC2)C(=O)Nc2nncs2)cn1`, in assay [2], the result was inactive. Further, at Hexokinase-4 [6], the EC50 result is listed as “Not Active”.
For the compound `Cc1ccc(N(CC2CCCC2)C(=O)Nc2ncc(Cl)s2)cc1Cl`, a half-maximal response at Hexokinase-4 [1] (EC50) required 0.4 µM.
The same measure, in the same setting: next, `CS(=O)(=O)c1ccc(N(CC2CCOC2)C(=O)Nc2ncc(Cl)s2)cc1` (stereo not given): 21.9 µM; `COc1ccc(N(CC2CCCC2)C(=O)Nc2ncc(Br)s2)cn1`: 2 µM; `CS(=O)(=O)c1ccc(N(CC2CCOCC2)C(=O)Nc2ncc(Cl)s2)cc1`: 4.9 µM.
Same read-out and setting: for `CS(=O)(=O)c1ccc(N(CC2CCCC2)C(=O)Nc2nnc(C(F)(F)F)s2)cc1` the value was 34.2 µM; for `O=C(Nc1ncc(Cl)s1)N(CC1CCCC1)c1ccc(F)c(F)c1`, 2.6 µM.
As to `CS(=O)(=O)c1ccc(N(CC2CCCC2)C(=O)Nc2nccs2)cc1`, the figures for the EC50 at Hexokinase-4 [4] and at Hexokinase-4 [1] were 9.7 µM and 16 µM, respectively. In addition, in assay [5], the Activity came to 2.8.
In turn, `COc1ccc(N(CC2CCCC2)C(=O)Nc2nccs2)cn1` registered an EC50 at Hexokinase-4 [1] of 19.2 µM.
Regarding `CS(=O)(=O)c1ccc(N(CC2CCCC2)C(=O)Nc2nc3ccc(S(C)(=O)=O)cc3s2)cc1`, the EC50 at Hexokinase-4 [1] came to 32.9 µM.
Compound `N#Cc1ccc(N(CC2CCCC2)C(=O)Nc2ncc(Cl)s2)cc1` showed an EC50 at Hexokinase-4 [1] of 2.4 µM.
For the compound `O=C(Nc1ncc(Cl)s1)N(CC1CCCC1)c1ccc(C(F)(F)F)cc1`, on Hexokinase-4 [1], the EC50 amounted to 1.3 µM.
Same read-out and setting: next, `CS(=O)(=O)c1ccc(N(CC2CCCC2)C(=O)Nc2ncc(Cl)s2)cc1`: 1.5 µM; `COc1ccc(N(CC2CCCC2)C(=O)Nc2ncc(Cl)s2)cn1`: 2.7 µM; `CS(=O)(=O)c1ccc(N(Cc2ccco2)C(=O)Nc2ncc(Cl)s2)cc1`: 11.5 µM.
Compound `O=C(Nc1ncc(Cl)s1)N(CC1CCCC1)c1ccc(Br)c(F)c1` yielded an EC50 on Hexokinase-4 [1] of 0.7 µM.
Consider `O=C(Nc1ncc(Cl)s1)N(CC1CCCC1)c1ccc(Oc2ccccc2)cc1`, for which the outcome in assay [2] was inactive. Moreover, on Hexokinase-4 [3], the EC50 result is listed as “Not Active”.
For `CS(=O)(=O)c1ccc(N(CC2CCCO2)C(=O)Nc2ncc(Cl)s2)cc1` (stereo not given), the EC50 on Hexokinase-4 [1] was 21.6 µM.
In turn, `N#Cc1ccc(N(CC2CCCC2)C(=O)Nc2ncc(Cl)s2)cn1` had an EC50 on Hexokinase-4 [1] of 7.7 µM.
At Hexokinase-4 [1], `CS(=O)(=O)c1ccc(N(Cc2cccs2)C(=O)Nc2ncc(Cl)s2)cc1` had an EC50 of 6.6 µM.
On Hexokinase-4 [1], `NS(=O)(=O)c1ccc(N(CC2CCCC2)C(=O)Nc2ncc(Cl)s2)cc1` returned an EC50 of 1.8 µM.
On Hexokinase-4 [1], `CS(=O)(=O)c1ccc(N(Cc2nccs2)C(=O)Nc2ncc(Br)s2)cc1` came in with an EC50 of 24.1 µM.
Same read-out and setting: next, `COc1cccc(N(CC2CCCC2)C(=O)Nc2ncc(Cl)s2)c1`: 1.4 µM.
The compound `NC(=O)c1cccc(N(CC2CCCC2)C(=O)Nc2ncc(Cl)s2)c1` returned an EC50 at Hexokinase-4 [1] of 1 µM.
